Counter-ions that a name gives are not always drawn.
Tests used:
Experiment in all cases: In vitro antibacterial activity (MIC, agar dilution)
Assay type in all cases: cell-based
[1] = tested on: Acinetobacter calcoaceticus CMX 669; conditions: CMX669; Acinetobacter calcoaceticus CMX 669; agar dilution; read-out: MIC
Method: (§1) Each plate was inoculated with 1:100 (or 1:10 for slow-growing strains, primarily Micrococcus and Streptococcus) dilutions of up to 32 different microorganisms, using a Steers replicator block calibrated to deliver approximately 10^4 colony forming units (CFUs). The inoculated plates were incubated at from about 35° C. to about 37° C. for approximately 20-24 hours. In o addition, a control plate using BHI agar containing no test compound was prepared and incubated at the beginning and at the end of each test. The quinolone antibacterial ciprofloxacin was used as a control ("Cntl").
(§2) The MIC was defined as the lowest concentration of test compound yielding no growth (a slight haze or sparsely isolated colonies at the inoculum spot) as compared to the growth control containing no test compound.

Candida albicans CCH 442 = conditions: CCH442; Candida albicans CCH 442; agar dilution; read-out: MIC
Method: as §1, §2

E. coli DC-2 = conditions: Escherichia coli, DC2; E. coli DC-2; agar dilution; read-out: MIC
Method: as §1, §2

E. coli H560 = conditions: Escherichia coli; E. coli H560; agar dilution; read-out: MIC
Method: as §1, §2

E. coli KNK 437 = conditions: Escherichia coli, KNK437; E. coli KNK 437; agar dilution; read-out: MIC
Method: as §1, §2

E. coli SS = conditions: Escherichia coli; E. coli SS; agar dilution; read-out: MIC
Method: as §1, §2

[2] = tested on: Enter. aerogenes ATCC 13048; conditions: Klebsiella aerogenes, ATCC13048
Method: as §1, §2

[3] = tested on: Entero. faecium ATCC 8043; conditions: Enterococcus faecium, ATCC8043; Entero. faecium ATCC 8043; agar dilution; read-out: MIC
Method: as §1, §2

Escherichia coli Juhl = tested on: Escherichia coli Juhl
Method: as §1, §2

[4] = tested on: Klebsiella pneumoniae ATCC 8045; conditions: ATCC8045; Klebsiella pneumoniae ATCC 8045; agar dilution; read-out: MIC
Method: as §1, §2

M. luteus ATCC 4698 = conditions: Micrococcus luteus, ATCC4698; M. luteus ATCC 4698; agar dilution; read-out: MIC
Method: as §1, §2

M. luteus ATCC 9341 = conditions: Micrococcus luteus, ATCC9341; M. luteus ATCC 9341; agar dilution; read-out: MIC
Method: as §1, §2

Myco. smegmatis ATCC 114 = conditions: Mycolicibacterium smegmatis, ATCC114
Method: as §1, §2

[5] = tested on: Nocardia asteroides ATCC 9970; conditions: ATCC9970; Nocardia asteroides ATCC 9970; agar dilution; read-out: MIC
Method: as §1, §2

P. aeruginosa 2862 = conditions: Pseudomonas aeruginosa; P. aeruginosa 2862; agar dilution; read-out: MIC
Method: as §1, §2

P. aeruginosa 5263 = conditions: Pseudomonas aeruginosa; P. aeruginosa 5263; agar dilution; read-out: MIC
Method: as §1, §2

P. aeruginosa A5007 = conditions: Pseudomonas aeruginosa; P. aeruginosa A5007; agar dilution; read-out: MIC
Method: as §1, §2

P. aeruginosa BMH 10 = conditions: Pseudomonas aeruginosa, BMH10; P. aeruginosa BMH 10; agar dilution; read-out: MIC
Method: as §1, §2

P. aeruginosa K799/61 = conditions: Pseudomonas aeruginosa
Method: as §1, §2

P. aeruginosa K799/WT = conditions: Pseudomonas aeruginosa; P. aeruginosa K799/WT; agar dilution; read-out: MIC
Method: as §1, §2

[6] = tested on: Providencia stuartii CMX 640; conditions: CMX640
Method: as §1, §2

Pseudomonas cepacia 296I = conditions: Burkholderia cepacia
Method: as §1, §2

[7] = tested on: Staph. aureus 1775 Cipro.R.; conditions: Staphylococcus aureus
Method: as §1, §2

Staph. aureus 5278 = conditions: Staphylococcus aureus
Method: as §1, §2

Staph. aureus 642A = conditions: Staphylococcus aureus
Method: as §1, §2

Staph. aureus A5177 = conditions: Staphylococcus aureus
Method: as §1, §2

Staph. aureus ATCC 6538P = conditions: Staphylococcus aureus, ATCC6538P
Method: as §1, §2

Staph. aureus CMX 553 = conditions: Staphylococcus aureus, CMX553
Method: as §1, §2

Staph. aureus NCTC10649 = conditions: Staphylococcus aureus
Method: as §1, §2

Staph. epidermidis 3519 = conditions: Staphylococcus epidermidis
Method: as §1, §2

[8] = tested on: Strep. agalactiae CMX 508; conditions: Streptococcus agalactiae, CMX508
Method: as §1, §2

Strep. bovis A5169 = conditions: Streptococcus equinus; Strep. bovis A5169; agar dilution; read-out: MIC
Method: as §1, §2

[9] = tested on: Strep. pyogenes 2458 INDUC; conditions: Streptococcus pyogenes
Method: as §1, §2

[10] = tested on: Strep. pyogenes 930 CONST; conditions: Streptococcus pyogenes
Method: as §1, §2

Strep. pyogenes EES61 = conditions: Streptococcus pyogenes
Method: as §1, §2

Measured: MIC

NC1CCN(c2c(F)cn3c(=O)c(C(=O)O)cc4c3c2Oc2ccccc2-4)C1 (centres unmarked) [Example 2, 1-(3-amino-pyrrolidinyl)-2-fluoro-5H-5-oxo-benzo[5,6]pyrano[2.3.4-ij]quinolizine-6-carboxylic acid hydrochloride]
> 100 µg/mL: Candida albicans CCH 442 | P. aeruginosa 2862 | P. aeruginosa 5263 | [6] | Pseudomonas cepacia 296I
12.5 µg/mL: E. coli DC-2
50 µg/mL: P. aeruginosa K799/WT
1.56 µg/mL: [4]
0.78 µg/mL: E. coli SS
6.2 µg/mL: [1] | [2] | [3] | P. aeruginosa K799/61 | [7] | Staph. aureus 5278 | Staph. aureus 642A | Staph. aureus A5177 | Staph. aureus ATCC 6538P | Staph. aureus CMX 553
25 µg/mL: P. aeruginosa BMH 10
100 µg/mL: P. aeruginosa A5007
3.1 µg/mL: all other assays above

Reference: patent US5618813A, “Benzo[5.6]pyrano[2.3.4-ij]quinolizine and benzo[5.6]thiopyrano[2.3.4-ij]quinolizine derivatives as antibacterial and antineoplastic agents” (Abbott Laboratories, priority 1995, dated 1997)
